Source: patent EP3827825A1, “USE OF 3, 4-DIARYLPYRAZOLES AS ANTIBACTERIAL AGENTS” (Wageningen Universiteit, priority 2019, dated 2021)
≈ marks a conversion by molar mass, not a printed value.

What was measured:
S. aureus Newman = experiment: Minimal inhibitory concentration (MIC), double-dilution in broth, OD600; type: cell-based, Staphylococcus aureus Newman; details: unit assumed
Protocol: (§1) In short, a stock solution of 5 mg/mL of HKIs in DMSO was made. This stock was diluted to 50 µg/mL in broth in a 96 well plate. Dilutions were made (factor 2) directly in the plate with a multi-channel pipet. Bacteria cultured in suspension overnight were then added to the plate (except negative control) and the plate was incubated for 24 hours. After 24 hours the OD600 was measured using a spectrophotometer. A positive control (with bacteria, without HKI) was also measured on each plate.
Bacterial strains used in this study for antibacterial susceptibility testing (Table S2) were propagated using standard microbiological procedures. Minimal inhibitory concentrations (MICs) were determined following a standard double-dilution method (42), 73. […] For M. marinum, MICs were determined in Middlebrook 7H9 broth (Difco) and MICs were determined after 3 days incubation at 30 °C.
(§2) Grow the bacterial colonies to be tested from single colonies on an agar plate in LB broth or suitable bacterial growth medium overnight at 37°C. Prepare a 5 mg/mL stock solution of compounds to be tested in DMSO. One 96-well plate per bacterial strain was prepared. First, put 50 uL of medium to each well. Add 48 µL of medium to all wells in row A. Pipet 2 µL of antimicrobial master stock into the top well (row A). Beware, the antimicrobial concentration will be diluted 2x after adding the bacterial culture. Total volume in each well will be 100 µL. In A11, pipet 2 µL of DMSO. Make a serial dilution from row A to row H, pipetting 50 µL from the previous row into the new one. Mix well by pipetting up and down. Discard the last 50 µL so that there is 50 µl in each well In a clean, new plastic pipetting cup, dilute the overnight bacterial culture 100 times. Add 100 µL of bacterial overnight culture to 9900 µL of medium. Mix the suspension well. Once the serial dilutions are complete for all antimicrobial compounds, add 50 µL of diluted overnight bacterial culture to each well (except column 12). Mix by pipetting or put the plate on the shaker. Per 2 plates, close with parafilm around the edges and place in the incubator overnight. After overnight culturing, measure bacterial growth on the SpectraMax. The lowest concentration where no growth is observed is the MIC. To determine the MIB pipette 5 µL from each well of the 96 well plate where now growth was observed on to an LB agar plate, without antimicrobial. Put the plates in the incubator to grow overnight. The minimal concentration where no growth can be seen on the agar plate is the MBC.

S. suis = experiment: as above; type: cell-based, Streptococcus suis; details: unit assumed
Protocol: as §1, with “each plate. The MICs were not determined in duplo/triplicate in the same experiment, however, the MICs of several HKIs were measured in different experiments and no major differences (max. 1x dilution) were found in the MICs between the experiments.” for “each plate.”
(§3) Bacterial strains used in this study for antibacterial susceptibility testing (Table S2) were propagated using standard microbiological procedures. Minimal inhibitory concentrations (MICs) were determined following a standard double-dilution method (42), 73. MICs were recorded as the lowest concentration of the compound where no visible growth was observed. After plating the dilutions around the MIC or growing them in fresh MH media, minimal bactericidal concentration (MBC) was recorded as the lowest concentration of the compound at which no colonies were formed or no growth was observed, respectively. For M. marinum, MICs were determined in Middlebrook 7H9 broth (Difco) and MICs were determined after 3 days incubation at 30 °C.
as §2

P. multocida = experiment: as above; type: cell-based, Pasteurella multocida; details: unit assumed
Protocol: as §1, with “each plate. The MICs were not determined in duplo/triplicate in the same experiment, however, the MICs of several HKIs were measured in different experiments and no major differences (max. 1x dilution) were found in the MICs between the experiments.” for “each plate.”
as §3, §2

M. marinum = experiment: Minimal inhibitory concentration (MIC), Middlebrook 7H9 broth, 3 days at 30 °C; type: cell-based, Mycobacterium marinum; details: unit assumed
Protocol: as §1, with “each plate. The MICs were not determined in duplo/triplicate in the same experiment, however, the MICs of several HKIs were measured in different experiments and no major differences (max. 1x dilution) were found in the MICs between the experiments.” for “each plate.”
as §3, §2

NRK-52E = experiment: Cell toxicity, Alamar blue assay, 24 hours exposure; type: cell-based; details: Rattus norvegicus, read-out: IC50 NRK-52E (50 mg/mL stock)
Protocol: Toxicity was primarily determined by measuring cytotoxicity with the Alamar blue assay. In short, cells (HEK293, NRK-52E and Caco-2) were plated in 96-well plates and cultured overnight. HKI compounds were diluted to concentrations ranging from 0.39 to 500 µg/mL in serum-free medium and added to the cells.
After exposure, cells were incubated for 24 hours. Experiments were mostly performed by single measurement. […] After 24 hours HKIs were removed from the cells and Alamar blue was added, incubated for 45 minutes and fluorescence was measured on a spectrophotometer. Alamar blue measures the conversion of blue, low fluorescent resazurin into high fluorescent pink resorufin. This conversion can only be made in viable mitochondria in viable cells and therefore this dye provides a measure for cytotoxicity.

E. coli JW5503 = type: cell-based, Escherichia coli; details: unit assumed
Protocol: as §1, with “each plate. The MICs were not determined in duplo/triplicate in the same experiment, however, the MICs of several HKIs were measured in different experiments and no major differences (max. 1x dilution) were found in the MICs between the experiments.” for “each plate.”
as §3, §2

E. faecium Van A = experiment: Minimal inhibitory concentration (MIC), double-dilution in broth, OD600; type: cell-based, Enterococcus faecium; details: unit assumed
Protocol: as §1, with “each plate. The MICs were not determined in duplo/triplicate in the same experiment, however, the MICs of several HKIs were measured in different experiments and no major differences (max. 1x dilution) were found in the MICs between the experiments.” for “each plate.”
as §3, §2

SMILES	MIC S. aureus Newman (S. aureus Newman) [µg/mL]	MIC S. suis (S. suis) [µg/mL]	MIC P. multocida (P. multocida) [µg/mL]	MIC M. marinum (M. marinum) [µg/mL]	IC50 (NRK-52E) [µg/mL]	MIC E. coli JW5503 (E. coli JW5503) [µg/mL]	MIC E. faecium Van A (E. faecium Van A) [µg/mL]
COc1ccc(-c2[nH]nc(C(F)(F)F)c2-c2ccc(OC)c(OC)c2)c(O)c1 [May-5, 2-[4-(3,4-dimethoxyphenyl)-5-(trifluoromethyl)-1∼{H}-pyrazol-3-yl]-5-methoxy-phenol]	25 (≈ 63.4 µM)	50 (≈ 127 µM)	> 50	> 50	6.11 (≈ 15.5 µM)	–	–
O=[N+]([O-])c1ccc(COc2ccc(-c3[nH]nc(C(F)(F)F)c3-c3ccc(Cl)cc3)c(O)c2)cc1 [Sep-12, 2-[4-(4-chlorophenyl)-5-(trifluoromethyl)-1∼{H}-pyrazol-3-yl]-5-(4-nitrobenzyl)oxyphenol]	3.13 (≈ 6.39 µM)	12.5 (≈ 25.5 µM)	> 50	50 (≈ 102 µM)	14.7 (≈ 30.1 µM)	> 50	12.5 (≈ 25.5 µM)
COc1ccc(-c2c(C(F)(F)F)n[nH]c2-c2ccc(OCc3ccccc3F)cc2O)cc1 [Sep-8, 5-(2-fluorobenzyl)oxy-2-[4-(4-methoxyphenyl)-5-(trifluoromethyl)-1∼{H}-pyrazol-3-yl]phenol]	3.13 (≈ 6.83 µM)	12.5 (≈ 27.3 µM)	> 50	> 50	~14.5 (≈ 31.7 µM)	50 (≈ 109 µM)	6.25 (≈ 13.6 µM)
Cc1ccc(COc2ccc(-c3n[nH]c(C(F)(F)F)c3-c3cccc4ccccc34)c(O)c2)cc1 [Sep-4, 5-(4-methylbenzyl)oxy-2-[4-(1-naphthyl)-5-(trifluoromethyl)-1∼{H}-pyrazol-3-yl]phenol]	3.13 (≈ 6.6 µM)	25 (≈ 52.7 µM)	> 50	50 (≈ 105 µM)	13.9 (≈ 29.2 µM)	> 50	25 (≈ 52.7 µM)
CCOc1ccc(-c2n[nH]c(C(F)(F)F)c2-c2ccccc2)c(O)c1C [Sep-3, 3-ethoxy-2-methyl-6-[4-phenyl-5-(trifluoromethyl)-1∼{H}-pyrazol-3-yl]phenol]	12.5 (≈ 34.5 µM)	25 (≈ 69 µM)	> 50	> 50	~15.5 (≈ 42.8 µM)	6.25 (≈ 17.2 µM)	25 (≈ 69 µM)
COc1ccc(-c2n[nH]c(C)c2-c2ccc(Cl)cc2)c(O)c1 [Sep-21, 2-[4-(4-chlorophenyl)-5-methyl-1∼{H}-pyrazol-3-yl]-5-methoxy-phenol]	50 (≈ 159 µM)	> 50	> 50	50 (≈ 159 µM)	18.2 (≈ 57.9 µM)	–	50 (≈ 159 µM)
O=[N+]([O-])c1ccc(COc2ccc(-c3[nH]nc(C(F)(F)F)c3-c3ccccc3)c(O)c2)cc1 [Sep-18, 5-(4-nitrobenzyl)oxy-2-[4-phenyl-5-(trifluoromethyl)-1∼{H}-pyrazol-3-yl]phenol]	6.25 (≈ 13.7 µM)	12.5 (≈ 27.4 µM)	> 50	> 50	~14.7 (≈ 32.3 µM)	12.5 (≈ 27.4 µM)	12.5 (≈ 27.4 µM)
COc1ccc(-c2c(C(F)(F)F)n[nH]c2-c2ccc(O)cc2O)cc1OC [May-2, 4-[4-(3,4-dimethoxyphenyl)-5-(trifluoromethyl)-1∼{H}-pyrazol-3-yl]resorcinol]	50 (≈ 131 µM)	50 (≈ 131 µM)	> 50	> 50	13.9 (≈ 36.6 µM)	–	50 (≈ 131 µM)
COc1ccc(-c2c(-c3ccc(OC)cc3O)n[nH]c2C(F)(F)F)cc1 [May-8]	12.5 (≈ 34.3 µM)	12.5 (≈ 34.3 µM)	> 50	50 (≈ 137 µM)	2.64 (≈ 7.25 µM)	3.13 (≈ 8.59 µM)	–
